This note sets out measurements from patent publication US11479580B2, “Polypeptide expressed in the stratum corneum and use thereof” (CENTRE NATIONAL DE LA RECHERCHE SCIENTIFIQUE—CNRS, priority 2010, dated 2022).

Assay [1] has as its system transglutaminases present in the granular layer of the human epidermis. The assay is described as follows: In situ binding assay of biotinylated polypeptides on cryosections of human abdominal skin. The settings on record: 100 μM; for marking of the granular keratinocytes, negative control: 100 mM EDTA, absence of calcium; for marking of the contour of the granular keratinocytes (polypeptide bound to cornified envelopes): 5 mM CaCl2, 2 h at room temperature, confocal microscope. The class given is biochemical. The protocol: To determine what region of the LCE6A protein is necessary for binding by the transglutaminases, the applicant arranged for the company MilleGen to synthesize various polypeptides, biotinylated at their N-terminal end, with a length of 9 to 13 amino acids, corresponding to different regions of the amino acid sequence of LCE6A.
These polypeptides were used in binding assays in situ. Cryosections of human abdominal skin, saturated by incubation in the presence of bovine albumin at 1% in PBS for 30 minutes at room temperature, were brought into contact with 100 mM Tris (pH 7.4) containing 100 μM of biotinylated polypeptide and 5 mM of CaCl2. After incubation for 2 h at room temperature, the reaction is stopped by adding EDTA at 25 mM for 5 minutes. The sections are then incubated in PBS containing 1% of SDS to destroy the noncovalent bonds.
The presence of biotinylated polypeptides bound to the cornified envelopes by the transglutaminases that are present and active in the tissue is detected by incubation of the sections with streptavidin-AlexaFluor555 at 5 μg/ml (Invitrogen) and visualization in the confocal microscope.
A positive control is performed in a similar experiment but by incubating the sections with 100 μM of cadaverine coupled to AlexaFluor555 (Invitrogen) instead of the polypeptides. For the negative controls, the cryosections are incubated with each biotinylated polypeptide or with cadaverine coupled to AlexaFluor555 but incubation is carried out in the presence of 100 mM of EDTA and in the absence of calcium.

Assay [2] deals with endogenous transglutaminase. In words: In vitro crosslinking binding assay with short peptide analogues of LCE6A fragments on human skin cryosections. The class given is biochemical. As to conditions: for labelling of the contour of the granular keratinocytes (peptide crosslinked to cornified envelopes) / labelling of the granular keratinocytes, negative control: 100 μM; for labelling of the contour of the granular keratinocytes (peptide crosslinked to cornified envelopes): 5 mM CaCl2, 2 h at room temperature, fluorescence microscope; for labelling of the granular keratinocytes, negative control: in the presence of EDTA, absence of calcium. On the procedure: Protocol: The following short peptides derived from the amino acid sequences PEVQKP of LCE6A (amino-acids 49 to 54 of SEQ ID NO:2), which sequences meet the criteria defined above and are biotinylated at their amino-terminus, were synthesized: PGVQKP (SEQ ID NO: 7), PEGQKP (SEQ ID NO: 8), GEVQKP (SEQ ID No: 9), PEVQKG (SEQ ID No: 10).
These peptides were used at a concentration of 100 μM in in situ binding assays. Cryosections of human abdominal skin, saturated by incubation in the presence of bovine albumin at 1% in PBS for 30 minutes at room temperature, were brought into contact with 100 mM Tris (pH 7.4) containing 100 μM of biotinylated polypeptide and 5 mM of CaCl2). After incubation for 2 h at room temperature, the reaction was stopped by adding EDTA at 25 mM for 20 minutes. The sections were then incubated in PBS containing 1% of SDS to destroy the noncovalent bonds. The presence of biotinylated polypeptides bound to the cornified envelopes by the transglutaminases that are present and active in the tissue was detected by incubation of the sections with streptavidin-AlexaFluor555 at 5 μg/ml (Invitrogen) and visualization in the fluorescence microscope. A positive control was performed in a similar experiment but by incubating the sections with 100 μM of the peptide PEVQKP of LCE6A (amino-acids 49 to 54 of SEQ ID NO: 2). For the negative control, the cryosections were incubated with each biotinylated polypeptide but incubation was carried out in the presence of 100 mM of EDTA and in the absence of calcium.

“SEQ ID NO: 5: polypeptide fragment of LCE6A, 9 to 13 amino acids, sequence not printed in the text (EVQKPRRARQKLR; Designed peptide based on homology to amino acid residue 50 to 62 from Protein LCE6A)”: in assay [1], the “marking of the granular keratinocytes, negative control” value (from here on “marking of the granular keratinocytes”) is on record as “no marking is obtained”.

For the substance “RPAPPPISGGGYRAR (Control peptide of SEQ ID NO 19) [reference compound]”, the “marking of the contour of the granular keratinocytes (polypeptide bound to cornified envelopes)” value in assay [1] is “does not give any pericellular marking”.

As to “SEQ ID NO: 4: polypeptide fragment of LCE6A, 9 to 13 amino acids, sequence not printed in the text (SSQRPEVQKPR; Designed peptide based on homology to amino acid residue 45 to 55 from Protein LCE6A)”, in assay [1], the “marking of the granular keratinocytes” value was “no marking is obtained”.

Take “EVAKPRRARQALR (Mutated peptide of SEQ ID NO 5) [reference compound]”: in assay [1], the “marking of the contour of the granular keratinocytes (polypeptide bound to cornified envelopes)” value is “does not give any pericellular marking”.

Consider “MSQAKQQSW (Mutated peptide of SEQ ID NO 3) [reference compound]”, for which, in assay [1], the “marking of the contour of the granular keratinocytes (polypeptide bound to cornified envelopes)” value is “does not give any pericellular marking”.

Take PEVQKP (fragment): in assay [2], the “labelling of the contour of the granular keratinocytes (peptide crosslinked to cornified envelopes)” value is given as “labelling of the contour of the granular keratinocytes” and the “labelling of the granular keratinocytes, negative control” value is listed as “Absence of labelling”.

Turning to “PEVQKG (Designed peptide based on homology to amino acid residue 49 to 54 from Protein LCE6A)”, in assay [2], the “ability to bind cornified envelopes (conclusion)” value is on record as “possesses the ability to bind cornified envelopes”; the “labelling of the contour of the granular keratinocytes (peptide crosslinked to cornified envelopes)” value is recorded as “strong labelling of the contour of the granular keratinocytes”; the “labelling of the granular keratinocytes, negative control” value is given as “Absence of labelling”.

“SEQ ID NO: 3: polypeptide fragment of LCE6A, 9 to 13 amino acids, sequence not printed in the text (MSQQKQQSW; Designed peptide based on homology to amino acid residue 1 to 9 from Protein LCE6A)”: in assay [1], the “marking of the granular keratinocytes” value is recorded as “no marking is obtained”.
